Data: PubChem BioAssay (NCI)
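Protocol summary: plate cells (96-well), add compound at 5 concentrations, incubate 48 h, interpolate endpoints linearly. GI50 is the concentration that inhibits growth by half. The concentration for full growth arrest is given as TGI.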

Experiments:
Test in all cases: inhibition of tumour cell growth, NCI panel, 48 h; in the data active = GI50 below about 0.43 µM; inactive = the rest
TK-10 renal = tested on: TK-10 renal
HL-60(TB) leukemia = tested on: HL-60(TB) leukemia
MCF7 breast = tested on: MCF7 breast
NCI-H460 lung = tested on: NCI-H460 lung
SNB-19 CNS = tested on: SNB-19 CNS
SF-268 CNS = tested on: SF-268 CNS
UACC-62 melanoma = tested on: UACC-62 melanoma
A549 NSCLC = tested on: A549 NSCLC
MOLT-4 leukemia = tested on: MOLT-4 leukemia
SK-MEL-2 melanoma = tested on: SK-MEL-2 melanoma
COLO 205 colon = tested on: COLO 205 colon
SF-295 CNS = tested on: SF-295 CNS
M14 melanoma = tested on: M14 melanoma
UACC-257 melanoma = tested on: UACC-257 melanoma
HOP-62 NSCLC = tested on: HOP-62 NSCLC
HOP-92 NSCLC = tested on: HOP-92 NSCLC
SW-620 colon = tested on: SW-620 colon
NCI-H226 lung = tested on: NCI-H226 lung
MDA-MB-435 = tested on: MDA-MB-435
SN12C renal = tested on: SN12C renal
DU-145 prostate = tested on: DU-145 prostate
HCT-116 colon = tested on: HCT-116 colon
OVCAR-3 ovarian = tested on: OVCAR-3 ovarian
SF-539 CNS = tested on: SF-539 CNS
EKVX NSCLC = tested on: EKVX NSCLC
ACHN renal = tested on: ACHN renal
U251 CNS = tested on: U251 CNS
SK-MEL-5 melanoma = tested on: SK-MEL-5 melanoma
OVCAR-5 ovarian = tested on: OVCAR-5 ovarian
CCRF-CEM leukemia = tested on: CCRF-CEM leukemia
NCI-H522 lung = tested on: NCI-H522 lung
NCI/ADR-RES ovarian = tested on: NCI/ADR-RES ovarian
SNB-75 CNS = tested on: SNB-75 CNS
MALME-3M melanoma = tested on: MALME-3M melanoma
CAKI-1 renal = tested on: CAKI-1 renal
KM12 colon = tested on: KM12 colon
OVCAR-8 ovarian = tested on: OVCAR-8 ovarian
OVCAR-4 ovarian = tested on: OVCAR-4 ovarian
NCI-H23 lung = tested on: NCI-H23 lung
SK-MEL-28 melanoma = tested on: SK-MEL-28 melanoma
K-562 leukemia = tested on: K-562 leukemia
UO-31 renal = tested on: UO-31 renal
LOX IMVI melanoma = tested on: LOX IMVI melanoma
SK-OV-3 ovarian = tested on: SK-OV-3 ovarian
HCC-2998 colon = tested on: HCC-2998 colon
HT29 colon = tested on: HT29 colon
HS 578T breast = tested on: HS 578T breast
A498 renal = tested on: A498 renal
HCT-15 colon = tested on: HCT-15 colon
BT-549 breast = tested on: BT-549 breast
RPMI-8226 leukemia = tested on: RPMI-8226 leukemia
MDA-MB-231 breast = tested on: MDA-MB-231 breast
T-47D breast = tested on: T-47D breast
SR leukemia = tested on: SR leukemia
IGROV1 ovarian = tested on: IGROV1 ovarian
786-0 renal = tested on: 786-0 renal

CCNC(=O)N1CCc2c(Cl)c3c(c(OC)c2[C@@H]1[C@H]1OCc2c1ccc(OC)c2OC)OCCO3
25 µM: TGI (HT29 colon)
6.43 µM: TGI (HL-60(TB) leukemia)
10.9 µM: TGI (COLO 205 colon)
7.07 µM: TGI (SNB-75 CNS)
42.3 µM: TGI (MDA-MB-231 breast)
2.83 µM: TGI (MDA-MB-435)
7.91 µM: TGI (A498 renal)
6.51 µM: TGI (SF-295 CNS)
inactive: GI50 (TK-10 renal) 13.5 µM | GI50 (HL-60(TB) leukemia) 2.49 µM | GI50 (MCF7 breast) 2.72 µM | GI50 (NCI-H460 lung) 3.47 µM | GI50 (SNB-19 CNS) 4.36 µM | GI50 (SF-268 CNS) 6.02 µM | GI50 (UACC-62 melanoma) 5.2 µM | GI50 (A549 NSCLC) 4.07 µM | GI50 (MOLT-4 leukemia) 4.95 µM | GI50 (SK-MEL-2 melanoma) 6.01 µM | GI50 (COLO 205 colon) 3.26 µM | GI50 (SF-295 CNS) 1.86 µM | GI50 (M14 melanoma) 2.12 µM | GI50 (UACC-257 melanoma) 9.63 µM | GI50 (HOP-62 NSCLC) 3.69 µM | GI50 (HOP-92 NSCLC) 11.7 µM | GI50 (SW-620 colon) 3.86 µM | GI50 (NCI-H226 lung) 4.44 µM | GI50 (MDA-MB-435) 1.16 µM | GI50 (SN12C renal) 7.1 µM | GI50 (DU-145 prostate) 4.2 µM | GI50 (HCT-116 colon) 3.46 µM | GI50 (OVCAR-3 ovarian) 2.31 µM | GI50 (SF-539 CNS) 2.35 µM | GI50 (EKVX NSCLC) 4.18 µM | GI50 (ACHN renal) 6.5 µM | GI50 (U251 CNS) 3.75 µM | GI50 (SK-MEL-5 melanoma) 4.59 µM | GI50 (OVCAR-5 ovarian) 3.93 µM | GI50 (CCRF-CEM leukemia) 3.82 µM | GI50 (NCI-H522 lung) 1.87 µM | GI50 (NCI/ADR-RES ovarian) 3.28 µM | GI50 (SNB-75 CNS) 2.2 µM | GI50 (MALME-3M melanoma) 6.27 µM | GI50 (CAKI-1 renal) 4.2 µM | GI50 (KM12 colon) 3.07 µM | GI50 (OVCAR-8 ovarian) 4.17 µM | GI50 (OVCAR-4 ovarian) 40.6 µM | GI50 (NCI-H23 lung) 4.59 µM | GI50 (SK-MEL-28 melanoma) 16.5 µM | GI50 (K-562 leukemia) 3.48 µM | GI50 (UO-31 renal) 5.52 µM | GI50 (LOX IMVI melanoma) 4.64 µM | GI50 (SK-OV-3 ovarian) 4.58 µM | GI50 (HCC-2998 colon) 4.19 µM | GI50 (HT29 colon) 3.38 µM | GI50 (HS 578T breast) 2.57 µM | GI50 (A498 renal) 2.6 µM | GI50 (HCT-15 colon) 2.72 µM | GI50 (BT-549 breast) 6.84 µM | GI50 (RPMI-8226 leukemia) 4.41 µM | GI50 (MDA-MB-231 breast) 4.95 µM | GI50 (T-47D breast) 4.26 µM | GI50 (SR leukemia) 4.22 µM | GI50 (IGROV1 ovarian) 3.6 µM | GI50 (786-0 renal) 4.24 µM
27.2 µM: TGI (LOX IMVI melanoma)
13.9 µM: TGI (NCI-H460 lung)
90 µM: TGI (HOP-92 NSCLC)
5.39 µM: TGI (M14 melanoma)
16.5 µM: TGI (KM12 colon)
5.37 µM: TGI (OVCAR-3 ovarian)
6.06 µM: TGI (SF-539 CNS)
> 100 µM: TGI (TK-10 renal) | TGI (MCF7 breast) | TGI (SNB-19 CNS) | TGI (SF-268 CNS) | TGI (UACC-62 melanoma) | TGI (A549 NSCLC) | TGI (MOLT-4 leukemia) | TGI (SK-MEL-2 melanoma) | TGI (UACC-257 melanoma) | TGI (HOP-62 NSCLC) | TGI (SW-620 colon) | TGI (NCI-H226 lung) | TGI (SN12C renal) | TGI (DU-145 prostate) | TGI (HCT-116 colon) | TGI (EKVX NSCLC) | TGI (ACHN renal) | TGI (OVCAR-5 ovarian) | TGI (CCRF-CEM leukemia) | TGI (NCI/ADR-RES ovarian) | TGI (MALME-3M melanoma) | TGI (CAKI-1 renal) | TGI (OVCAR-8 ovarian) | TGI (OVCAR-4 ovarian) | TGI (NCI-H23 lung) | TGI (SK-MEL-28 melanoma) | TGI (K-562 leukemia) | TGI (UO-31 renal) | TGI (SK-OV-3 ovarian) | TGI (HCC-2998 colon) | TGI (HCT-15 colon) | TGI (BT-549 breast) | TGI (RPMI-8226 leukemia) | TGI (T-47D breast) | TGI (SR leukemia) | TGI (IGROV1 ovarian) | TGI (786-0 renal)
9.13 µM: TGI (HS 578T breast)
21.1 µM: TGI (SK-MEL-5 melanoma)
37.5 µM: TGI (U251 CNS)
6.66 µM: TGI (NCI-H522 lung)
